The values below come from patent US20240368191A1, “HETEROCYCLIC COMPOUNDS AND USES THEREOF” (Kumquat Biosciences Inc., priority 2021, published 2024).

T1 sequence (P01116 1-169 isoform P01116-2 G12S): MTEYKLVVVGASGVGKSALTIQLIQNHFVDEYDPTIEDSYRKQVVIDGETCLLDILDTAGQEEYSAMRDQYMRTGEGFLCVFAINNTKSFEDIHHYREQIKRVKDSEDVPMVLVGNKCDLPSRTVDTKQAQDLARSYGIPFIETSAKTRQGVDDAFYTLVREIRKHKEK

Tested on in the first series: not listed separately
Description: in vitro. The note with it: microsomes, pH 7.4.
For `N#Cc1c(N)sc2c(F)ccc(-c3ncc4c(N5CC6CCC(C5)N6C(=O)n5ccnc5C#N)nc(OC[C@@]56CCCN5C[C@H](F)C6)nc4c3F)c12` [Compound A165, 1-(3-(7-(2-amino-3-cyano-7-fluorobenzo[b]thiophen-4-yl)-8-fluoro-2-(((2R,7aS)-2-fluoro-tetrahydro-1H-pyrrolizin-7a(5H)-yl)methoxy)pyrido[4,3-d]pyrimidin-4-yl)-3,8-diaza-bicyclo[3.2.1]octane-8-carbon-yl)-1H-imidazole-2-carbonitrile], the half-life (commonly the time needed for the level to fall by half in the phase considered) at 0.5 μM is > 10 min.
Same read-out and setting: to `C#Cc1c(F)ccc2cc(O)cc(-c3ccc4c(N5CC6CCC(C5)N6C(=O)n5cncn5)nc(OC[C@@]56CCCN5C[C@H](F)C6)nc4c3F)c12` [Compound A281, (3-(7-(8-ethynyl-7-fluoro-3-hydroxynaphthalen-1-yl)-8-fluoro-2-(((2R,7aS)-2-fluoro-tetrahydro-1H-pyrrolizin-7a(5H)-yl)methoxy)quinazolin-4-yl)-3,8-diazabicyclo[3.2.1]-octan-8-yl)(1H-1,2,4-triazol-1-yl)methanone] belongs > 10 min; to `N#Cc1c(N)sc2c(F)ccc(-c3c(Cl)cc4c(N5CC6CCC(C5)N6C(=O)n5ccnc5)nc(OC[C@@]56CCCN5C[C@H](F)C6)nc4c3F)c12` [Compound A105, 4-(4-(8-(1H-imidazole-1-carbonyl)-3,8-diazabicyclo-[3.2.1]octan-3-yl)-6-chloro-8-fluoro-2-(((2R,7aS)-2-fluoro-tetrahydro-1H-pyrrolizin-7a(5H)-yl)methoxy)quinazolin-7-yl)-2-amino-7-fluorobenzo-[b]thiophene-3-carbonitrile], > 10 min.
Still for that read-out and setting: in the case of `N#Cc1c(N)sc2c(F)ccc(-c3c(Cl)cc4c(N5CC6CCC(C5)N6C(=O)n5ccnc5C#N)nc(OC[C@@]56CCCN5C[C@H](F)C6)nc4c3F)c12` [Compound A220, 1-(3-(7-(2-amino-3-cyano-7-fluorobenzo[b]thiophen-4-yl)-6-chloro-8-fluoro-2-(((2R,7aS)-2-fluorotetrahydro-1H-pyrrol-izin-7a(5H)-yl)methoxy)quin-azolin-4-yl)-3,8-diazabicyclo-[3.2.1]octane-8-carbonyl)-1H-imidazole-2-carbonitrile] it was > 10 min.
As to `C#Cc1c(F)ccc2cc(O)cc(-c3ncc4c(N5CC6CCC(C5)N6C(=O)n5ccnc5)nc(OC[C@@]56CCCN5C[C@H](F)C6)nc4c3F)c12` [Compound A163, (3-(7-(8-ethynyl-7-fluoro-3-hydroxynaphthalen-1-yl)-8-fluoro-2-(((2R,7aS)-2-fluoro-tetrahydro-1H-pyrrolizin-7a(5H)-yl)methoxy)pyrido[4,3-d]pyrimidin-4-yl)-3,8-diaza-bicyclo[3.2.1]octan-8-yl)(1H-imidazol-1-yl)methanone], the half-life at 0.5 μM was > 10 min.
Consider `N#Cc1ccn(C(=O)N2C3CCC2CN(c2nc(OC[C@@]45CCCN4C[C@H](F)C5)nc4c(F)c(-c5ccc(F)c6sc(N)c(C#N)c56)c(Cl)cc24)C3)n1` [Compound A224, 1-(3-(7-(2-amino-3-cyano-7-fluorobenzo[b]thiophen-4-yl)-6-chloro-8-fluoro-2-(((2R,7aS)-2-fluorotetrahydro-1H-pyrrolizin-7a(5H)-yl)methoxy)quinazolin-4-yl)-3,8-diazabicyclo[3.2.1]-octane-8-carbonyl)-1H-pyrazole-3-carbonitrile], for which the half-life at 0.5 μM was > 10 min.
As to `N#Cc1c(N)sc2c(F)ccc(-c3ncc4c(N5CC6CCC(C5)N6C(=O)n5cncn5)nc(OC[C@@]56CCCN5C[C@H](F)C6)nc4c3F)c12` [Compound A206, 4-(4-(8-(1H-1,2,4-triazole-1-carbonyl)-3,8-diazabicyclo-[3.2.1]octan-3-yl)-8-fluoro-2-(((2R,7aS)-2-fluorotetrahydro-1H-pyrrolizin-7a(5H)-yl)meth-oxy)pyrido[4,3-d]pyrimidin-7-yl)-2-amino-7-fluorobenzo[b]-thiophene-3-carbonitrile], the half-life at 0.5 μM was > 10 min.
The same measure, in the same setting: in the case of `N#Cc1c(N)sc2c(F)ccc(-c3c(Cl)cc4c(N5CC6CCC(C5)N6C(=O)n5cc(C(F)(F)F)cn5)nc(OC[C@@]56CCCN5C[C@H](F)C6)nc4c3F)c12` [Compound A122, 2-amino-4-(6-chloro-8-fluoro-2-(((2R,7aS)-2-fluorotetrahydro-1H-pyrrolizin-7a(5H)-yl)meth-oxy)-4-(8-(4-(trifluoromethyl)-1H-pyrazole-1-carbonyl)-3,8-diazabicyclo[3.2.1]octan-3-yl)-quinazolin-7-yl)-7-fluorobenzo-[b]thiophene-3-carbonitrile] it was > 10 min.
The same measure, in the same setting: in the case of `N#Cc1c(N)sc2c(F)ccc(-c3c(Cl)cc4c(N5CC6CCC(C5)N6C(=O)Nc5ncccn5)nc(OC[C@@]56CCCN5C[C@H](F)C6)nc4c3F)c12` [Compound A215, 3-(7-(2-amino-3-cyano-7-fluorobenzo[b]thiophen-4-yl)-6-chloro-8-fluoro-2-(((2R,7aS)-2-fluorotetrahydro-1H-pyrrolizin-7a(5H)-yl)methoxy)quinazolin-4-yl)-N-(pyrimidin-2-yl)-3,8-diazabicyclo[3.2.1]octane-8-carboxamide] it was > 10 min.
As to `C#Cc1c(F)ccc2cc(O)cc(-c3ncc4c(N5CC6CCC(C5)N6C(=O)n5cc(C#N)cn5)nc(OC[C@@]56CCCN5C[C@H](F)C6)nc4c3F)c12` [Compound A143, 1-(3-(7-(8-ethynyl-7-fluoro-3-hydroxynaphthalen-1-yl)-8-fluoro-2-(((2R,7aS)-2-fluoro-tetrahydro-1H-pyrrolizin-7a(5H)-yl)methoxy)pyrido[4,3-d]pyrimidin-4-yl)-3,8-diaza-bicyclo[3.2.1]octane-8-carbon-yl)-1H-pyrazole-4-carbonitrile], the half-life at 0.5 μM is > 10 min.
Same read-out and setting: to `N#Cc1cnn(C(=O)N2CC3COCC(C2)N3c2nc(OC[C@@]34CCCN3C[C@H](F)C4)nc3c(F)c(-c4ccc(F)c5sc(N)c(C#N)c45)c(Cl)cc23)c1` [Compound A249, 1-(9-(7-(2-amino-3-cyano-7-fluorobenzo[b]thiophen-4-yl)-6-chloro-8-fluoro-2-(((2R,7aS)-2-fluorotetrahydro-1H-pyrrolizin-7a(5H)-yl)methoxy)quinazolin-4-yl)-3-oxa-7,9-diazabicyclo-[3.3.1]nonane-7-carbonyl)-1H-pyrazole-4-carbonitrile] belongs > 10 min; to `C#Cc1c(F)ccc2cc(O)cc(-c3ncc4c(N5C6COCC5CN(C(=O)n5cc(C#N)cn5)C6)nc(OC[C@@]56CCCN5C[C@H](F)C6)nc4c3F)c12` [Compound A226, 1-(9-(7-(8-ethynyl-7-fluoro-3-hydroxynaphthalen-1-yl)-8-fluoro-2-(((2R,7aS)-2-fluoro-tetrahydro-1H-pyrrolizin-7a(5H)-yl)methoxy)pyrido[4,3-d]pyrimidin-4-yl)-3-oxa-7,9-diazabicyclo[3.3.1]nonane-7-carbonyl)-1H-pyrazole-4-carbo-nitrile], > 10 min; to `C#Cc1c(F)ccc2cc(O)cc(-c3ncc4c(N5CC6CCC(C5)N6C(=O)Nc5ncccn5)nc(OC[C@@]56CCCN5C[C@H](F)C6)nc4c3F)c12` [Compound A131, 3-(7-(8-ethynyl-7-fluoro-3-hydroxynaphthalen-1-yl)-8-fluoro-2-(((2R,7aS)-2-fluoro-tetrahydro-1H-pyrrolizin-7a(5H)-yl)methoxy)pyrido[4,3-d]pyrimidin-4-yl)-N-(pyrimidin-2-yl)-3,8-diazabicyclo[3.2.1]-octane-8-carboxamide], > 10 min.

The next series addresses T1, KRAS G12S 1-169 (His-tagged, GDP-loaded) (Homo sapiens, UniProt P01116, G12S).
T1 construct: His -tagged GDP-loaded G12S 1-169; made in house; host or cells: E. coli, e.g. BL21 (DE3)
Description: Covalent modification of KRAS protein by intact-protein LC-MS. Conditions: 24-hour treatment. In kind it is binding. In short, it runs like this: (§1)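 Percent modification is derived from deconvoluted intact-protein LC-ESI-MS peak intensities of adducted versus unmodified KRAS. GDP-loaded His-tagged KRAS 1-169 (~2 μM, HEPES buffer at physiological conditions) was exposed to compound for 24 hrs at room temperature, then quenched with formic acid before C4 reversed-phase separation.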
For `N#Cc1cn(C(=O)N2C3CCC2CN(c2nc(OC[C@@]45CCCN4C[C@H](F)C5)nc4c(F)c(-c5ccc(F)c6sc(N)nc56)c(Cl)cc24)C3)cn1` [Compound A123, 1-(3-(7-(2-amino-7-fluorobenzo-[d]thiazol-4-yl)-6-chloro-8-fluoro-2-(((2R,7aS)-2-fluoro-tetrahydro-1H-pyrrolizin-7a(5H)-yl)methoxy)quinazolin-4-yl)-3,8-diazabicyclo[3.2.1]-octane-8-carbonyl)-1H-imid-azole-4-carbonitrile], the “K-Ras12S engagement after 24-hour treatment” value is listed as “++ (++: indicates between 1% to 20% labelling)”.

The same series, now with this note: KRAS G12S, 24 hr.
With `N#Cc1cn(C(=O)N2C3CCC2CN(c2nc(OC[C@@]45CCCN4C[C@H](F)C5)nc4c(F)c(-c5ccc(F)c6sc(N)nc56)c(Cl)cc24)C3)cn1` [Compound A123, 1-(3-(7-(2-amino-7-fluorobenzo-[d]thiazol-4-yl)-6-chloro-8-fluoro-2-(((2R,7aS)-2-fluoro-tetrahydro-1H-pyrrolizin-7a(5H)-yl)methoxy)quinazolin-4-yl)-3,8-diazabicyclo[3.2.1]-octane-8-carbonyl)-1H-imid-azole-4-carbonitrile], the “% G12S Modification at 24 hr.” value is reported as “++ (++ indicates between about 1%-20% labelling)”.
Same read-out and setting: to `N#Cc1nccn1C(=O)N1C2CCC1CN(c1nc(OC[C@@]34CCCN3C[C@H](F)C4)nc3c(F)c(-c4ccc(F)c5sc(N)nc45)c(Cl)cc13)C2` [Compound A170, 1-(3-(7-(2-amino-7-fluorobenzo-[d]thiazol-4-yl)-6-chloro-8-fluoro-2-(((2R,7aS)-2-fluoro-tetrahydro-1H-pyrrolizin-7a(5H)-yl)methoxy)quinazolin-4-yl)-3,8-diazabicyclo[3.2.1]-octane-8-carbonyl)-1H-imid-azole-2-carbonitrile] belongs “++ (++ indicates between about 1%-20% labelling)”; to `N#Cc1c(N)sc2c(F)ccc(-c3c(Cl)cc4c(N5CCN(C(=O)n6cncn6)CC(F)(F)C5)nc(OC[C@@]56CCCN5C[C@H](F)C6)nc4c3F)c12` [Compound A280, 2-amino-4-(6-chloro-4-(6,6-difluoro-4-(1H-1,2,4-triazole-1-carbonyl)-1,4-diazepan-1-yl)-8-fluoro-2-(((2R,7aS)-2-fluoro-tetrahydro-1H-pyrrolizin-7a(5H)-yl)methoxy)quinazolin-7-yl)-7-fluorobenzo[b]thio-phene-3-carbonitrile], “+++ (+++ indicates greater than 20% labelling)”.

The target of the next series is T2, KRAS G12D 1-169 (His-tagged, GDP-loaded) (Homo sapiens, UniProt P01116, G12D).
T2 construct: His -tagged GDP-loaded G12D 1-169; made in house; host or cells: E. coli, e.g. BL21 (DE3)
T2 sequence (P01116 1-169 isoform P01116-2 G12D): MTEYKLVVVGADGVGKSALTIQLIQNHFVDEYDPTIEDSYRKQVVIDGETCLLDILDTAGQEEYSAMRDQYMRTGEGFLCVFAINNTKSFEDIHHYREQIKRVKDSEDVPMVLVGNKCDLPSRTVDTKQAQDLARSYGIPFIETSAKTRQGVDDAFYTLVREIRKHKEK
Described as above. The note with it: comparable or same conditions as K-Ras G12S. It is filed as binding. The method, boiled down: as §1
On to `N#Cc1c(N)sc2c(F)ccc(-c3ncc4c(N5CC6CCC(C5)N6C(=O)n5ccnc5C#N)nc(OC[C@@]56CCCN5C[C@H](F)C6)nc4c3F)c12` [Compound A165, 1-(3-(7-(2-amino-3-cyano-7-fluorobenzo[b]thiophen-4-yl)-8-fluoro-2-(((2R,7aS)-2-fluoro-tetrahydro-1H-pyrrolizin-7a(5H)-yl)methoxy)pyrido[4,3-d]pyrimidin-4-yl)-3,8-diaza-bicyclo[3.2.1]octane-8-carbon-yl)-1H-imidazole-2-carbonitrile], for which the “covalent labeling of K-Ras G12D” value is “essentially no detectable labeling”.
Take `N#Cc1c(N)sc2c(F)ccc(-c3c(Cl)cc4c(N5CCN(C(=O)n6cncn6)CC(F)(F)C5)nc(OC[C@@]56CCCN5C[C@H](F)C6)nc4c3F)c12` [Compound A280, 2-amino-4-(6-chloro-4-(6,6-difluoro-4-(1H-1,2,4-triazole-1-carbonyl)-1,4-diazepan-1-yl)-8-fluoro-2-(((2R,7aS)-2-fluoro-tetrahydro-1H-pyrrolizin-7a(5H)-yl)methoxy)quinazolin-7-yl)-7-fluorobenzo[b]thio-phene-3-carbonitrile]: the “covalent labeling of K-Ras G12D” value is listed as “essentially no detectable labeling”.
